According to PMC9953308, “The Mechanism of Enantioselective Neurosteroid Actions on GABAA Receptors” (Biomolecules, 2023):

Key:
[1] = target: T1, α1β3 GABAA receptor (β3 subunit; β3-α1 intersubunit site) (Homo sapiens, UniProt P14867+P28472); assay: competitive prevention of KK123 photolabeling with MS readout; EC50 from oocyte two-electrode voltage clamp (weak potentiation of GABA currents); format: cell-based
T1 construct: gene GABRB3; human α1-8xHis-FLAG and human β3 GABAA receptor in HEK-T-Rex-293 membranes; human α1β3 in Xenopus oocytes for EC50; with GABAA receptor α1 subunit (GABRA1)
T1 sequence (P28472 26-473): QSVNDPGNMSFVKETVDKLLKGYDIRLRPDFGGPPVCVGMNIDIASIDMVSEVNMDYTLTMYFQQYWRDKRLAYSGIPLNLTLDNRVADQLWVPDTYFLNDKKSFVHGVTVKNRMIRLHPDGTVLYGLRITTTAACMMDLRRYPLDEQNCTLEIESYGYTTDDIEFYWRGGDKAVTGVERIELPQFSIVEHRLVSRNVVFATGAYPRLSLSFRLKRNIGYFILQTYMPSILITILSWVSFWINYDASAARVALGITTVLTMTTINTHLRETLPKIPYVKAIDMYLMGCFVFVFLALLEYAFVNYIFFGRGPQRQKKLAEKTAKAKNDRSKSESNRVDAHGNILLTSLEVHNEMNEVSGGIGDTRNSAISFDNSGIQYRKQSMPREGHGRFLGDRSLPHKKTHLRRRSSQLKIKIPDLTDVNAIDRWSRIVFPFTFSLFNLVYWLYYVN
T1 sequence (P14867 28-456): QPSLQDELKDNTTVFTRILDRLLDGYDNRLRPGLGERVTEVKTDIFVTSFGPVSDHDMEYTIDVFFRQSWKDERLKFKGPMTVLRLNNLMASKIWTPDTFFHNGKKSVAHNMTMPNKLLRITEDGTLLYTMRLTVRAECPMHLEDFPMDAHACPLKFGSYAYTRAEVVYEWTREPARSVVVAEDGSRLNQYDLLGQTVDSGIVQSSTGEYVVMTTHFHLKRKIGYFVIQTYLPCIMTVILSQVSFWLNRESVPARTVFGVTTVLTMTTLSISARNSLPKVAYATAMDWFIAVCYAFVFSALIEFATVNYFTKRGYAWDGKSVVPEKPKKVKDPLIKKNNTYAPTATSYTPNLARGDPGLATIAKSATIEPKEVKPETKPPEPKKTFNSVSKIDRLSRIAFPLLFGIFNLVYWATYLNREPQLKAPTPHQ

[2] = target: T2, α1β3 GABAA receptor (α1 subunit) (Homo sapiens, UniProt P14867); assay: photoaffinity labeling ([…]) with middle-down MS identification of adducted residue; format: binding
T2 construct: gene GABRA1; human α1-8xHis-FLAG and human β3 GABAA receptor in HEK-T-Rex-293 membranes; with GABAA receptor β3 subunit (GABRB3)
T2 sequence (P14867 28-456): T1 sequence (P14867 28-456)
T2 sequence (P28472 26-473 partner): T1 sequence (P28472 26-473)

[3] = target: T1, α1β3 GABAA receptor (β3 subunit; β3-α1 intersubunit site); assay: competitive prevention of KK200/KK123 photolabeling with MS readout; EC50 from oocyte two-electrode voltage clamp (potentiation of GABA currents); format: cell-based

SMILES: CC(=O)[C@@H]1CC[C@@H]2[C@H]3CC[C@@H]4C[C@@H](O)CC[C@@]4(C)[C@@H]3CC[C@]21C [ent-ALLO, ent-allopregnanolone]
- EC50 [1]: 2000 ± 300 nM

SMILES: C#CCCO[C@@H]1C[C@@]2(C)[C@@H]3CC[C@]4(C)[C@H](CC[C@H]4OC)[C@H]3CC3(N=N3)[C@@H]2C[C@H]1O [KK152]
- photoaffinity labeling (30 μM) with middle-down MS identification of adducted re [2]: A fragmentation ion spectrum of this peptide identified Tyr415 as the site of KK152 adduction

SMILES: CC(=O)[C@H]1CC[C@H]2[C@@H]3CC[C@H]4C[C@H](O)CC[C@]4(C)[C@H]3CC[C@]12C [ALLO, 3α-hydroxy-5α-pregnan-20-one]
- EC50 [3]: 80 ± 10 nM
